Columns and labels:
β1 integrin = biological target: T1, β1 integrin (Mus musculus, UniProt P09055); test: β1 integrin and active β1 integrin levels (antibody 9EG7) in PAN-treated murine podocytes; format: cell-based
T1 construct: we quantified the level of β1 in treated cells; endogenous in cells; host or cells: conditionally immortalized murine podocytes (from mouse line H-2Kb-tsA58)
Source text: FIG. 9A-9E. An An β1-integrin agonist pyrintegrin (pyr) protects podocytes from damage. (A) The published chemical structure of pyr. (Xu et al. PNAS, 2010.) (B-D) Pyr protects podocytes from PAN-induced loss of F-actin fibers and focal adhesions and enhances active β1-integrin levels. (B) Graphs showing the effect of pyr on the number of F-actin fibers per cell and the number of vinculin spots per cell under each treatment condition. Data shown are means 6 SEMs per cell from three replicate wells (n=500-1000 cells per well). **P, 0.01; ***P, 0.001; ****P, 0.001. (C) Representative fluorescence images of murine podocytes after various treatments and after staining with phalloidin and antiactive β1 antibody. Two-color costained images show cells stained with phalloidin (red) and anti-active β1 antibody 9EG7 (green). Images were acquired using the Opera HCS System. […] Data shown are means±SEMs per cell from four to five replicate wells (n=500-1000 cells per well). Scale bar, 50 μm. *P, 0.01; **P, 0.001. (D) Representative fluorescence images of human podocytes after various treatments as shown. Images show cells stained with phalloidin (red) and anti-active β1-integrin antibody 12G10 (green). Images were acquired using the Opera HCS System. […] Data shown are medians±SEMs per cell from four to five replicate wells (n=500-1000 cells per well). Scale bar, 50 μm. **P, 0.01; ***P, 0.001. (E) Pyr reduces injury-mediated increase in podocyte migration in a scratch wound-healing assay. Representative images (left panel) and a bar graph (right panel) showing confocal microscopy-based quantitation of the number of migrating podocytes in a scratch wound-healing assay Lines represent the wound margins at the beginning of the experiment (0 hours). The data presented in the graph are plotted as means±SEMs (n≧15). C, control. Scale bar, 50 μm. **P<0.01; ****P<0.001.
FIG. 16. […] The cellular damage was assessed after staining the cells with phalloidin, anti-paxillin and anti-integrin β1 antibodies and quantifying various cellular phenotypes using the HCS system. […]

C57BL/6J mice = test: LPS-induced proteinuria in mice; format: in vivo, mouse
Protocol: The induction of proteinuria in female wild type C57BL/6J mice (n=6-13 per group) by LPS injection was performed as described. (Reiser et al., J Clin Invest, 2004; Yanagida-Asanuma et al., The American Journal of Pathology, 2007; Faul et al., Nat Med, 2008; Yu et al., The New England Journal of Medicine, 2013.) Briefly, 10 week old female mice were intraperitoneally injected with LPS (10 mg/kg, in saline). Control mice were injected with saline alone. Animals in the treatment groups were treated with vehicle or 10 mg/kg pyr (stock in DMSO) diluted in saline 2 h prior to the administration of LPS. Spot urine was collected from each group of animals for measurement of albuminuria as mg albumin per mg creatinine. (Faul et al., Nat Med, 2008) Results are expressed as mean±SEM. The mice were sacrificed and the efficacy of pyrintegrin was further analyzed by histochemical and immunofluorescence analyses.
For light microscopy, freshly harvested mouse kidney tissue was embedded in OCT, snap frozen in liquid nitrogen and stored at −80° C. Tissue sections were cut and fixed in −20° C. acetone before immunofluorescence staining. Sections were blocked at room temperature for 1 h and incubated with the primary antibodies against total β1 integrin (hamster anti-mouse, BioLegend), active β1 integrin (Lentner et al., PNAS, 1993.) (rat anti-mouse antibody 9EG7, BD Biosciences) and synaptopodin (polyclonal goat, SC-21537, Santa Cruz) at 4° C. overnight. Slides were incubated with appropriate fluorescently labeled secondary antibodies (Life Technologies, CA) and mounted with DAPI containing mounting solution (Vector Laboratories, Burlingame, Calif.). Fluorescence images were acquired using a Zeiss 700 LSM confocal microscope with a 20× objective and analyzed using the Zen software (Carl Zeiss Group, Hartford, Conn.). For transmission electron microscopy (TEM), tissues were fixed, embedded, sectioned, and stained as previously described. Nature Medicine, 2008.) Images were acquired using Zeiss SIGMA HD VP electron microscope. […]

T1 sequence (P09055 21-798): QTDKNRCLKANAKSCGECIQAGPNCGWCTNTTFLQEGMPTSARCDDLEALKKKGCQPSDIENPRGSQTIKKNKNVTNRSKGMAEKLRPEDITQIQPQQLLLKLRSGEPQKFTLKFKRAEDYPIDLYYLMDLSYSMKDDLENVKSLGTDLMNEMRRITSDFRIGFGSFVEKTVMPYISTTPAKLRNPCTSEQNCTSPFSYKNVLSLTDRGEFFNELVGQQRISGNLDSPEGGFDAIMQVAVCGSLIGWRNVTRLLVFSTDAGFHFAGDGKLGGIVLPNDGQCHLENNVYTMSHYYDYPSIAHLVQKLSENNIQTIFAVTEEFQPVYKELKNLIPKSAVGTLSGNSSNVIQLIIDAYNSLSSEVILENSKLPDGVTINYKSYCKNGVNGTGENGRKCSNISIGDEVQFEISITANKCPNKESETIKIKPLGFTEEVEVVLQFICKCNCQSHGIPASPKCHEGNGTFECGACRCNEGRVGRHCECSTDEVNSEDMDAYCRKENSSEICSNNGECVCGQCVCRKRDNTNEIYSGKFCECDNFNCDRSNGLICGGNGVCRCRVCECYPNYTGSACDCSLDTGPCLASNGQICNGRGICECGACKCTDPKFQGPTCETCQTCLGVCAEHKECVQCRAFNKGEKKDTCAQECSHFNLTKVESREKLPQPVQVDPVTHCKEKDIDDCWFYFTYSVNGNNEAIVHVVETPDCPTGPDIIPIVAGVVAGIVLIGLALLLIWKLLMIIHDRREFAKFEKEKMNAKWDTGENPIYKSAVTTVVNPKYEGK
T1 sequence (Q62470 33-1053 partner): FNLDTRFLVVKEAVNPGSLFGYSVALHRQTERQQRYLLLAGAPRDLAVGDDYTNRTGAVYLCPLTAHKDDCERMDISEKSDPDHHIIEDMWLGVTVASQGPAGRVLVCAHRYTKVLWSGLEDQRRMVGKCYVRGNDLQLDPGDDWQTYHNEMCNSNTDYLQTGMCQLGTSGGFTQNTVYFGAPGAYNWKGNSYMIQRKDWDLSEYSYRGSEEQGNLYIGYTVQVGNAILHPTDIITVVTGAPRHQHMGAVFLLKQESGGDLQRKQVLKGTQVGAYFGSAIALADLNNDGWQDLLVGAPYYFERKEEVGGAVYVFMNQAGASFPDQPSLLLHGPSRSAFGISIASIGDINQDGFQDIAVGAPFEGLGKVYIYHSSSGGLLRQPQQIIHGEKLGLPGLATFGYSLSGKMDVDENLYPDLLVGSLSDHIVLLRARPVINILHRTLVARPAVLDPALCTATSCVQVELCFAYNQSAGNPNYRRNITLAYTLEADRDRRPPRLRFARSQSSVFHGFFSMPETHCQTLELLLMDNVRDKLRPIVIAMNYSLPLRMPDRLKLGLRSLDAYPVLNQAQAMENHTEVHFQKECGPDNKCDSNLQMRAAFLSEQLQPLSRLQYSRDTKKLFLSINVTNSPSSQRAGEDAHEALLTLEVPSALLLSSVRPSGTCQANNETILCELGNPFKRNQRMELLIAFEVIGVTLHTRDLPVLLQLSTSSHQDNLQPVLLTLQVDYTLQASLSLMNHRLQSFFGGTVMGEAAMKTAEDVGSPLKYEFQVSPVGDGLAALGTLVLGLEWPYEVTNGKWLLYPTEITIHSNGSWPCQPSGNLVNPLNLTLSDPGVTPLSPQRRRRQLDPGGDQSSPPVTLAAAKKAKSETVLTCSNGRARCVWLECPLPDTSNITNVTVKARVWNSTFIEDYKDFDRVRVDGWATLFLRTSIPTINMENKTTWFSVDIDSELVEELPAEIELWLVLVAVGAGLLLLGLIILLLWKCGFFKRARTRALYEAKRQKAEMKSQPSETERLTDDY

`O=S(=O)(NCC1CC1)c1ccc(Nc2nccc(N3CCCc4cc(O)ccc43)n2)cc1` [Pyrintegrin] was tested, and the “β1 levels in podocytes” value (β1 integrin; PAN 30 μg/mL, pyr 1 μM cotreatment, 48 h (FIG. 16)) was “preserved”, the “active β1 levels in podocytes (antibody 9EG7)” value (β1 integrin; PAN cotreatment) was “significant loss of active β1 levels in podocytes but not on treatment with pyrintegrin” and the “active β1 levels in healthy cells” value (β1 integrin; healthy cells, no PAN) was “significant increase in active β1 levels”. The “proteinuria, albumin per creatinine in urine” value (C57BL/6J mice; C57BL/6 mice, LPS 10 mg/kg i.p., pyrintegrin 10 mg/kg, 24 hours) was 0.668±0.074 mg albumin per 1 mg creatinine, the “active β1 integrin levels in glomeruli (antibody 9EG7)” value (C57BL/6J mice; mice, 24 hours after LPS, confocal microscopy) was “significant protection of the active β1 levels” and the “protection from LPS-induced podocyte FP effacement” value (C57BL/6J mice; mice, pyrintegrin 10 mg/kg, electron microscopy) was “significant protection”.
